According to ChEMBL document CHEMBL1201862, “PubChem BioAssay data set” (2004):
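Five compound concentrations were applied to cells in 96-well plates for 48 hours; endpoints were derived by simple linear interpolation of the resulting dose-response curve. Here, GI50 denotes the concentration required for 50% inhibition of growth.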 Active and inactive are the calls of the source. Rule as the data show it: active = GI50 up to about 1.1 µM and inactive = higher.

What was measured:
Assay in all cases: DTP human tumour cell line panel, 48 h
SW-620 = test system: SW-620
RPMI-8226 = test system: RPMI-8226
UACC-257 = test system: UACC-257
KM-20L2 = test system: KM-20L2
NCI-H23 = test system: NCI-H23
HOP-92 = test system: HOP-92
SN12C = test system: SN12C
LXFL 529 = test system: LXFL 529
OVCAR-4 = test system: OVCAR-4
HOP-18 = test system: HOP-18
NCI-H460 = test system: NCI-H460
OVCAR-5 = test system: OVCAR-5
M14 = test system: M14
SNB-75 = test system: SNB-75
Malme-3M = test system: Malme-3M
MOLT-4 = test system: MOLT-4
DLD-1 = test system: DLD-1
DMS-114 = test system: DMS-114
K562 = test system: K562
LOX IMVI = test system: LOX IMVI
M19-MEL = test system: M19-MEL
HCC 2998 = test system: HCC 2998
SK-MEL-28 = test system: SK-MEL-28
OVCAR-8 = test system: OVCAR-8
ACHN = test system: ACHN
COLO 205 = test system: COLO 205
CAKI-1 = test system: CAKI-1
HT-29 = test system: HT-29
KM12 = test system: KM12
IGROV-1 = test system: IGROV-1
A549 = test system: A549
TK-10 = test system: TK-10
SF-295 = test system: SF-295
SK-MEL-2 = test system: SK-MEL-2
RXF 393 = test system: RXF 393
CCRF-CEM = test system: CCRF-CEM
HOP-62 = test system: HOP-62
OVCAR-3 = test system: OVCAR-3
HL-60 = test system: HL-60
SR = test system: SR
UACC-62 = test system: UACC-62
SF-268 = test system: SF-268
HCT-116 = test system: HCT-116
786-0 = test system: 786-0
NCI-H522 = test system: NCI-H522
HCT-15 = test system: HCT-15
SK-OV-3 = test system: SK-OV-3
NCI-H226 = test system: NCI-H226
U-251 = test system: U-251
UO-31 = test system: UO-31
SK-MEL-5 = test system: SK-MEL-5
EKVX = test system: EKVX
SF-539 = test system: SF-539
SNB-19 = test system: SNB-19
NCI/ADR-RES = test system: NCI/ADR-RES
A498 = test system: A498
BT-549 = test system: BT-549
PC-3 = test system: PC-3
T47D = test system: T47D
Hs-578T = test system: Hs-578T
MDA-N = test system: MDA-N
SNB-78 = test system: SNB-78
DMS-273 = test system: DMS-273
MDA-MB-231 = test system: MDA-MB-231
XF498 = test system: XF498
DU-145 = test system: DU-145
MDA-MB-435 = test system: MDA-MB-435

COc1cc2cnc3c4cc(O)ccc4ccc3c2cc1OC
GI50 (SW-620): 54700 nM (inactive)
GI50 (RPMI-8226): > 100000 nM (inactive)
GI50 (UACC-257): 56600 nM (inactive)
GI50 (KM-20L2): > 100000 nM (inactive)
GI50 (NCI-H23): 45700 nM (inactive)
GI50 (HOP-92): > 100000 nM (inactive)
GI50 (SN12C): 35200 nM (inactive)
GI50 (LXFL 529): 6080 nM (inactive)
GI50 (OVCAR-4): 26700 nM (inactive)
GI50 (HOP-18): 34800 nM (inactive)
GI50 (NCI-H460): > 100000 nM (inactive)
GI50 (OVCAR-5): > 100000 nM (inactive)
GI50 (M14): > 100000 nM (inactive)
GI50 (SNB-75): 22600 nM (inactive)
GI50 (Malme-3M): 51100 nM (inactive)
GI50 (MOLT-4): 31100 nM (inactive)
GI50 (DLD-1): > 100000 nM (inactive)
GI50 (DMS-114): 6300 nM (inactive)
GI50 (K562): 19700 nM (inactive)
GI50 (LOX IMVI): 42600 nM (inactive)
GI50 (M19-MEL): 24700 nM (inactive)
GI50 (HCC 2998): 91000 nM (inactive)
GI50 (SK-MEL-28): 65600 nM (inactive)
GI50 (OVCAR-8): 23600 nM (inactive)
GI50 (ACHN): > 100000 nM (inactive)
GI50 (COLO 205): 12900 nM (inactive)
GI50 (CAKI-1): > 100000 nM (inactive)
GI50 (HT-29): > 100000 nM (inactive)
GI50 (KM12): 51400 nM (inactive)
GI50 (IGROV-1): 75700 nM (inactive)
GI50 (A549): > 100000 nM (inactive)
GI50 (TK-10): > 100000 nM (inactive)
GI50 (SF-295): 92700 nM (inactive)
GI50 (SK-MEL-2): 26400 nM (inactive)
GI50 (RXF 393): 46500 nM (inactive)
GI50 (CCRF-CEM): 29900 nM (inactive)
GI50 (HOP-62): 36800 nM (inactive)
GI50 (OVCAR-3): 17600 nM (inactive)
GI50 (HL-60): 33200 nM (inactive)
GI50 (SR): 34200 nM (inactive)
GI50 (UACC-62): 72400 nM (inactive)
GI50 (SF-268): 23600 nM (inactive)
GI50 (HCT-116): > 100000 nM (inactive)
GI50 (786-0): 61800 nM (inactive)
GI50 (NCI-H522): 15600 nM (inactive)
GI50 (HCT-15): > 100000 nM
GI50 (SK-OV-3): > 100000 nM (inactive)
GI50 (NCI-H226): 26400 nM (inactive)
GI50 (U-251): 10800 nM (inactive)
GI50 (UO-31): > 100000 nM (inactive)
GI50 (SK-MEL-5): > 100000 nM (inactive)
GI50 (EKVX): > 100000 nM (inactive)
GI50 (SF-539): 63000 nM (inactive)
GI50 (SNB-19): 30700 nM (inactive)

O=C1C=C(N2CC2)C(=O)C=C1N1CC1
GI50 (NCI/ADR-RES): 757 nM (active)
GI50 (SW-620): 89.1 nM (active)
GI50 (RPMI-8226): 227 nM (active)
GI50 (A498): 31.8 nM (active)
GI50 (BT-549): 348 nM (active)
GI50 (UACC-257): 265 nM (active)
GI50 (KM-20L2): 354 nM (active)
GI50 (NCI-H23): 90.4 nM (active)
GI50 (HOP-92): 440 nM (active)
GI50 (SN12C): 122 nM (active)
GI50 (LXFL 529): 159 nM (active)
GI50 (OVCAR-4): 216 nM (active)
GI50 (NCI-H460): 40.1 nM (active)
GI50 (OVCAR-5): 646 nM (active)
GI50 (M14): 91 nM (active)
GI50 (SNB-75): 385 nM (active)
GI50 (PC-3): 1110 nM (active)
GI50 (Malme-3M): 107 nM (active)
GI50 (MOLT-4): 34.4 nM (active)
GI50 (T47D): 1050 nM (active)
GI50 (DLD-1): 117 nM (active)
GI50 (LOX IMVI): 84.9 nM (active)
GI50 (Hs-578T): 2390 nM (inactive)
GI50 (HCC 2998): 307 nM (active)
GI50 (SK-MEL-28): 290 nM (active)
GI50 (ACHN): 42.3 nM (active)
GI50 (COLO 205): 98.4 nM (active)
GI50 (CAKI-1): < 14.8 nM (active)
GI50 (HT-29): 204 nM (active)
GI50 (KM12): 824 nM (active)
GI50 (IGROV-1): 753 nM (active)
GI50 (TK-10): 136 nM (active)
GI50 (MDA-N): 515 nM (active)
GI50 (SNB-78): 138 nM (active)
GI50 (SF-295): 155 nM (active)
GI50 (DMS-273): 61.7 nM (active)
GI50 (SK-MEL-2): 120 nM (active)
GI50 (RXF 393): 63.4 nM (active)
GI50 (MDA-MB-231): 2300 nM (inactive)
GI50 (XF498): 105 nM (active)
GI50 (CCRF-CEM): 29.1 nM (active)
GI50 (HOP-62): 136 nM (active)
GI50 (OVCAR-3): 88.9 nM (active)
GI50 (HL-60): 26.5 nM (active)
GI50 (SR): 25.8 nM (active)
GI50 (UACC-62): 178 nM (active)
GI50 (SF-268): 155 nM (active)
GI50 (DU-145): 339 nM (active)
GI50 (NCI-H522): 65.2 nM (active)
GI50 (HCT-15): 102 nM
GI50 (MDA-MB-435): 1230 nM (inactive)
GI50 (SK-OV-3): 522 nM (active)
GI50 (NCI-H226): 418 nM (active)
GI50 (U-251): 229 nM (active)
GI50 (UO-31): 104 nM (active)
GI50 (SK-MEL-5): 101 nM (active)
GI50 (SF-539): 93.1 nM (active)
GI50 (SNB-19): 904 nM (active)
